Data taken from US6525001B1, “Substituted pyrimidine and pyridine herbicides” (Mid-American Commercialization Corporation, priority 1997, dated 2003).

Tests used:
Test in all cases: Test B pre-/postemergence
Type in all cases: in vivo
Set-up in all cases: key: 0 is no effect; 10 is complete control
[1] = system: cocklebur (Xanthium strumarium)
In short: (§1)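 Seeds were planted and sprayed preemergence, while plants at 2 to 18 cm (1- to 4-leaf stage) were sprayed postemergence at the same time, with test chemical in a non-phytotoxic solvent mixture containing surfactant. After twelve to sixteen days in a greenhouse, injury was rated visually against untreated controls on a 0–10 scale.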

[2] = system: momingglory (Ipomoea hederacea)
In short: as §1

[3] = system: pigweed (Amaranthus retroflexus)
In short: as §1

[4] = system: blackgrass (Alopecurus myosuroides)
In short: as §1

[5] = system: broadleaf signalgrass (Brachiaria decumbens)
In short: as §1

[6] = Preemergence, Rate 62 g/ha, scale of 0 to 10

SMILES	Cocklebur plant response rating ([1]; Rate 62 g/ha, Postemergence)	Cocklebur plant response rating ([1]; Rate 125 g/ha, Postemergence)	Plant response rating, Cocklebur ([1]; Rate 125 g/ha, Preemergence)	Plant response rating, Cocklebur ([1]; Rate 250 g/ha, Postemergence)	Plant response rating, Cocklebur ([1]; Rate 500 g/ha, Postemergence)	Plant response rating, Cocklebur ([1]; Rate 500 g/ha, Preemergence)	Morningglory plant response rating ([2]; Rate 62 g/ha, Postemergence)	Plant response rating, Morningglory ([2]; Rate 125 g/ha, Preemergence)	Plant response rating, Morningglory ([2]; Rate 250 g/ha, Preemergence)	Plant response rating, Morningglory ([2]; Rate 500 g/ha, Postemergence)	Plant response rating, Morningglory ([2]; Rate 500 g/ha, Preemergence)	Plant response rating, Redroot pigweed [3, 6]	Redroot pigweed plant response rating ([3]; Rate 62 g/ha, Postemergence)	Redroot pigweed plant response rating ([3]; Rate 125 g/ha, Postemergence)	Plant response rating, Redroot pigweed ([3]; Rate 125 g/ha, Preemergence)	Plant response rating, Redroot pigweed ([3]; Rate 250 g/ha, Postemergence)	Plant response rating, Redroot pigweed ([3]; Rate 250 g/ha, Preemergence)	Plant response rating, Redroot pigweed ([3]; Rate 500 g/ha, Postemergence)	Plant response rating, Redroot pigweed ([3]; Rate 500 g/ha, Preemergence)	Plant response rating, Blackgrass [4, 6]	further results
Cc1cnc(-n2ccc(C(F)(F)F)n2)nc1C(=O)c1cccc(C(F)(F)F)c1 [Compound 59]	4	7	2	7	8	2	7	6	10	10	10	8	8	8	10	8	10	9	10	2	Plant response rating, Cocklebur [1, 6]: 0; Plant response rating, Morningglory [2, 6]: 6; Plant response rating, Morningglory ([2]; Rate 250 g/ha, Postemergence): 10; Blackgrass plant response rating ([4]; Rate 62 g/ha, Postemergence): 2; Blackgrass plant response rating ([4]; Rate 125 g/ha, Postemergence): 3; Plant response rating, Blackgrass ([4]; Rate 125 g/ha, Preemergence): 3; Plant response rating, Blackgrass ([4]; Rate 250 g/ha, Postemergence): 5; Plant response rating, Blackgrass ([4]; Rate 250 g/ha, Preemergence): 7; Plant response rating, Blackgrass ([4]; Rate 500 g/ha, Postemergence): 6; Plant response rating, Blackgrass ([4]; Rate 500 g/ha, Preemergence): 9; B. signalgrass plant response rating ([5]; Rate 62 g/ha, Postemergence): 2; B. signalgrass plant response rating ([5]; Rate 62 g/ha, Preemergence): 7; B. signalgrass plant response rating ([5]; Rate 125 g/ha, Postemergence): 2; Plant response rating, B. signalgrass ([5]; Rate 125 g/ha, Preemergence): 9; Plant response rating, B. signalgrass ([5]; Rate 250 g/ha, Postemergence): 2; Plant response rating, B. signalgrass ([5]; Rate 250 g/ha, Preemergence): 9; Plant response rating, B. signalgrass ([5]; Rate 500 g/ha, Postemergence): 3; Plant response rating, B. signalgrass ([5]; Rate 500 g/ha, Preemergence): 9
Cc1cnc(-n2cnc(C(F)(F)F)c2)nc1C(=O)c1cccc(C(F)(F)F)c1 [Compound 61]	3	7	0	8	8	10	5	3	10	9	10	8	8	9	9	9	9	9	10	1	Plant response rating, Cocklebur [1, 6]: 0; Plant response rating, Cocklebur ([1]; Rate 250 g/ha, Preemergence): 1; Morningglory plant response rating ([2]; Rate 125 g/ha, Postemergence): 9; Blackgrass plant response rating ([4]; Rate 62 g/ha, Postemergence): 3; Blackgrass plant response rating ([4]; Rate 125 g/ha, Postemergence): 4; Plant response rating, Blackgrass ([4]; Rate 125 g/ha, Preemergence): 3; Plant response rating, Blackgrass ([4]; Rate 250 g/ha, Postemergence): 6; Plant response rating, Blackgrass ([4]; Rate 250 g/ha, Preemergence): 5; Plant response rating, Blackgrass ([4]; Rate 500 g/ha, Postemergence): 8; Plant response rating, Blackgrass ([4]; Rate 500 g/ha, Preemergence): 8; B. signalgrass plant response rating ([5]; Rate 62 g/ha, Postemergence): 3; B. signalgrass plant response rating ([5]; Rate 62 g/ha, Preemergence): 5; B. signalgrass plant response rating ([5]; Rate 125 g/ha, Postemergence): 4; Plant response rating, B. signalgrass ([5]; Rate 125 g/ha, Preemergence): 7; Plant response rating, B. signalgrass ([5]; Rate 250 g/ha, Postemergence): 4; Plant response rating, B. signalgrass ([5]; Rate 250 g/ha, Preemergence): 8; Plant response rating, B. signalgrass ([5]; Rate 500 g/ha, Postemergence): 5; Plant response rating, B. signalgrass ([5]; Rate 500 g/ha, Preemergence): 9
Cc1cnc(-c2ccc(C(F)(F)F)cc2)nc1Cn1cc(Br)cn1 [Compound 54]	3	3	0	7	9	0	2	1	2	10	2	1	4	5	2	6	7	7	9	0	Plant response rating, Cocklebur ([1]; Rate 250 g/ha, Preemergence): 0; Plant response rating, Morningglory [2, 6]: 0; Morningglory plant response rating ([2]; Rate 125 g/ha, Postemergence): 3; Plant response rating, Morningglory ([2]; Rate 250 g/ha, Postemergence): 3; Blackgrass plant response rating ([4]; Rate 62 g/ha, Postemergence): 1; Blackgrass plant response rating ([4]; Rate 125 g/ha, Postemergence): 1; Plant response rating, Blackgrass ([4]; Rate 125 g/ha, Preemergence): 1; Plant response rating, Blackgrass ([4]; Rate 250 g/ha, Postemergence): 2; Plant response rating, Blackgrass ([4]; Rate 250 g/ha, Preemergence): 3; Plant response rating, Blackgrass ([4]; Rate 500 g/ha, Postemergence): 3; Plant response rating, Blackgrass ([4]; Rate 500 g/ha, Preemergence): 4; B. signalgrass plant response rating ([5]; Rate 62 g/ha, Postemergence): 3; B. signalgrass plant response rating ([5]; Rate 62 g/ha, Preemergence): 0; B. signalgrass plant response rating ([5]; Rate 125 g/ha, Postemergence): 3; Plant response rating, B. signalgrass ([5]; Rate 125 g/ha, Preemergence): 1; Plant response rating, B. signalgrass ([5]; Rate 250 g/ha, Postemergence): 4; Plant response rating, B. signalgrass ([5]; Rate 250 g/ha, Preemergence): 3; Plant response rating, B. signalgrass ([5]; Rate 500 g/ha, Postemergence): 5; Plant response rating, B. signalgrass ([5]; Rate 500 g/ha, Preemergence): 6
